In patent publication US6534652B2, “Intermediates for the preparation of substituted 1,2,3,4-tetrahydronaphthalene derivatives” (AstraZeneca AB, priority 1997, dated 2003):

Row | SMILES | melting point
1 | CCCCOc1ccc(C(=O)N[C@@H]2CCc3c(O)ccc(N4CCN(C)CC4)c3C2)cc1 [Example 11, (R)-N-[5-Hydroxy-8-(4-methylpiperazin-1-yl)-1,2,3,4-tetrahydro-2-naphthyl]-4-butoxybenzamide] | 125 °C (dec.)
2 | CN1CCN(c2ccc(O)c3c2C[C@H](NC(=O)c2ccc(C#N)cc2)CC3)CC1 [Example 26, (R)-N-[5-Hydroxy-8-(4-methylpiperazin-1-yl)-1,2,3,4-tetrahydro-2-naphthyl]-4-cyanobenzamide] | 144 °C
3 | COc1ccc(N2CCN(C)CC2)c2c1CC[C@@H](NC(=O)c1ccc(C(=O)N3CCOCC3)cc1)C2 [Example 27, (R)-N-[5-Methoxy-8-(4-methylpiperazin-1-yl)-1,2,3,4-tetrahydro-2-naphthyl]-4-morpholinocarbonylbenzamide] | 209 to 210 °C
4 | COc1ccc(C2CCN(C)CC2)c2c1CC[C@@H](NC(=O)c1ccc(N3CCOCC3)cc1)C2 [Example 38, (R)-N-[5-Methoxy-8-(1-methylpiperidin-4-yl)-1,2,3,4-tetrahydro-2-naphthyl]-4-morpholinobenzamide] | 237 to 242 °C (dec.)
5 | CN1CCN(c2ccc(Br)c3c2C[C@H](NC(=O)c2ccc(C(F)(F)F)cc2)CC3)CC1 [Example 48, (R)-N-[5-Bromo-8-(4-methylpiperazin-1-yl)-1,2,3,4-tetrahydro-2-naphthyl]-4-trifluoromethylbenzamide] | 229 to 230 °C
6 | Cc1ccc(N2CCN(C)CC2)c2c1CC[C@@H](NC(=O)c1ccc(Cl)cc1)C2 [Example 68, (R)-N-[5-Methyl-8-(4-methylpiperazin-1-yl)-1,2,3,4-tetrahydro-2-naphthyl]-4-chlorobenzamide] | 210 to 212 °C

The next lines start with the values.

Row | melting point | SMILES
7 | 228 to 229 °C | O=C(N[C@@H]1CCc2c(Br)ccc(N3CCNCC3)c2C1)c1ccc(N2CCOCC2)cc1 [Example 17, (R)-N-[5-Bromo-8-(piperazin-1-yl)-1,2,3,4-tetrahydro-2-naphthyl]-4-morpholinobenzamide]
8 | 245 to 246 °C | CN1CCN(c2ccc(Br)c3c2C[C@H](NC(=O)c2ccc(N4CCOCC4)cc2)CC3)CC1 [Example 20, (R)-N-[5-Bromo-8-(4-methylpiperazin-1-yl)-1,2,3,4-tetrahydro-2-naphthyl]-4-morpholinobenzamide]
9 | 237 to 238 °C | COc1ccc(N2CCN(C)CC2)c2c1CC[C@@H](NC(=O)c1ccc(N3CCOCC3)cc1)C2 [Example 25, (R)-N-[5-Methoxy-8-(4-methylpiperazin-1-yl)-1,2,3,4-tetrahydro-2-naphthyl]-4-morpholinobenzamide]
10 | 228 to 230 °C | CN1CCN(c2ccc(Br)c3c2C[C@H](NC(=O)c2ccc(C(=O)N4CCOCC4)cc2)CC3)CC1 [Example 28, (R)-N-[5-Bromo-8-(4-methylpiperazin-1-yl)-1,2,3,4-tetrahydro-2-naphthyl]-4-morpholinocarbonylbenzamide]
11 | 234 °C (dec.) | CCc1ccc(N2CCN(C)CC2)c2c1CC[C@@H](NC(=O)c1ccc(N3CCOCC3)cc1)C2 [Example 42, (R)-N-[5-Ethyl-8-(4-methylpiperazin-1-yl)-1,2,3,4-tetrahydro-2-naphthyl]-4-morpholinobenzamide]
12 | 222 to 223 °C | CN1CCN(c2ccc(OC(F)F)c3c2C[C@H](NC(=O)c2ccc(N4CCOCC4)cc2)CC3)CC1 [Example 46, (R)-N-[5-Difluoromethoxy-8-(4-methylpiperazin-1-yl)-1,2,3,4-tetrahydro-2-naphthyl]-4-morpholinobenzamide]
13 | 200 °C (dec.) | COCc1ccc(N2CCN(C)CC2)c2c1CC[C@@H](NC(=O)c1ccc(N3CCOCC3)cc1)C2 [Example 51, (R)-N-[5-Methoxymethyl-8-(4-methylpiperazin-1-yl)-1,2,3,4-tetrahydro-2-naphthyl]-4-morpholinobenzamide]
14 | 84 to 88 °C | CN1CCN(c2ccc(O)c3c2C[C@H](NC(=O)c2ccc(N4CCOCC4)cc2)CC3)CC1 [Example 60, (R)-N-[5-Hydroxy-8-(4-methylpiperazin-1-yl)-1,2,3,4-tetrahydro-2-naphthyl]-4-morpholinobenzamide]
15 | 207 to 210 °C | Cc1ccc(N2CCNCC2)c2c1CC[C@@H](NC(=O)c1ccc(N3CCOCC3)cc1)C2 [Example 67, (R)-N-[5-Methyl-8-(piperazin-1-yl)-1,2,3,4-tetrahydro-2-naphthyl]-4-morpholinobenzamide]
